From publication PMC3914206

Tests used:
panel of 442 kinases [1] = biological target: T1, panel of 442 kinases (Homo sapiens, UniProt O14920); assay type: binding; settings: Compound Concentration 10 µM
T1 construct: purchased KINOMEscan
T1 sequence (O14920 1-756): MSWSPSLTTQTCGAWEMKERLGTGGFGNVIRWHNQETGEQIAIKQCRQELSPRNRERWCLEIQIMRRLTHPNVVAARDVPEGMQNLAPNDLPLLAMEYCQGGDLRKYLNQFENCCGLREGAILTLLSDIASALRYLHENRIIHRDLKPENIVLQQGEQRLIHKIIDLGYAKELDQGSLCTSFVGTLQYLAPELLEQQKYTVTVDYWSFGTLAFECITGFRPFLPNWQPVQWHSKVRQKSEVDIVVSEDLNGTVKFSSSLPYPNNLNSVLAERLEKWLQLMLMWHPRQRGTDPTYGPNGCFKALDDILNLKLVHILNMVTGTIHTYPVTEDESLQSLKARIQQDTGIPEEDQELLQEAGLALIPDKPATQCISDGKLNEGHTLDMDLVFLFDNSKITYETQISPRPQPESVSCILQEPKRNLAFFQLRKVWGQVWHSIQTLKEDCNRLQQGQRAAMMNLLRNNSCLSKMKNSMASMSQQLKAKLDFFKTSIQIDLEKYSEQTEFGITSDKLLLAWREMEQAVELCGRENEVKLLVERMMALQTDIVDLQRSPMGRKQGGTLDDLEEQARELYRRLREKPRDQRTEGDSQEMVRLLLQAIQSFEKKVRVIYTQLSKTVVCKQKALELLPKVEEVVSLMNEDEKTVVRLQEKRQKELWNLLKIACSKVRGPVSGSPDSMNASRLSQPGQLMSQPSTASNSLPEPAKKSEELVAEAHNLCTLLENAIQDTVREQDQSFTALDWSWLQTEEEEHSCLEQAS
Description: (§1) We assessed the selectivity of members of this scaffold using the KINOMEscan methodology across a near comprehensive panel of 442 kinases [[18,27]].

panel of 442 kinases [2] = biological target: T2, panel of 442 kinases (Homo sapiens, UniProt Q04771); assay type: binding; settings: Compound Concentration 10 µM
T2 construct: purchased KINOMEscan
T2 sequence (Q04771 21-509): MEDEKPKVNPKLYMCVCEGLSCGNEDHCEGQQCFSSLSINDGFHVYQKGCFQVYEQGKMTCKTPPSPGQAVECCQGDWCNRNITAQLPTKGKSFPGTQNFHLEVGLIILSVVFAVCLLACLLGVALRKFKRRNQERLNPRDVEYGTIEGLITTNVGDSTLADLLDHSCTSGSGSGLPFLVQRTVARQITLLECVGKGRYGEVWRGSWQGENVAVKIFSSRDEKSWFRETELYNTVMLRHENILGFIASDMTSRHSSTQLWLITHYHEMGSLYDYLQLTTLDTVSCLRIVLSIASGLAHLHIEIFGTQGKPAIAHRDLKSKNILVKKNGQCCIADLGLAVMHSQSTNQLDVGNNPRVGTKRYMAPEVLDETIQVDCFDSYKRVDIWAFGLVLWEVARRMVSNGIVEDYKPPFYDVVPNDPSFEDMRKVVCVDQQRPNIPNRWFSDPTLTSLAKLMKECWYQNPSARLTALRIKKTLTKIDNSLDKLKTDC
Description: as §1

SMILES	KINOMEscan: IKK-beta (panel of 442 kinases [1])	KINOMEscan: ACVR1 (panel of 442 kinases [2])
CCOc1cc(C(=O)N2CCC(N3CCN(C)CC3)CC2)ccc1Nc1ncc2c(n1)N(C1CCCC1)c1ccccc1C(=O)N2C [Compound 26]	99	100
COc1cc(C(=O)N2CCC(N3CCN(C)CC3)CC2)ccc1Nc1ncc2c(n1)N(C1CCCC1)c1ccccc1C(=O)N2C [Compound 25, 11-cyclopentyl-2-((2-methoxy-4-(4-(4-methylpiperazin-1-yl)piperidine-1-carbonyl)phenyl)amino)-5-methyl-5H-benzo[e]pyrimido[5,4-b][1,4]diazepin-6(11H)-one]	100	100
COc1cc(C(=O)N2CCC(N3CCN(C)CC3)CC2)ccc1Nc1ncc2c(n1)N(C)c1ccccc1C(=O)N2C [15 (LRRK2-IN-1)]	89	98
